Consider 4 compounds from patent US10167262B2, “Herbicidal substituted 3-arylpyrazoles” (FMC CORPORATION, priority 2014, dated 2019).

Assay type in all cases: in vivo
Experiment [1] concerns palmer pigweed (AMAPA, Amaranthus palmeri). The experiment is described as follows: Test H postemergence mixture test of compound 39 with commercial herbicides, observed and Colby expected effect 0-100. As to conditions: commercial herbicide alone, 14 days after treatment. The source says:
(§1) This test evaluated the effect of mixtures of compound 39 with three commercial herbicides on five plant species. Seeds of plant species selected from corn (ZEAMD, Zea mays), soybean (GLXMA, Glycine max), palmer pigweed (AMAPA, Amaranthus palmeri), waterhemp (common waterhemp, AMATA, Amaranthus rudis), and Kochia (KCHSC, Kochia scoparia) were planted in pots containing Redi-Earth® planting medium (Scotts Company, 14111 Scottslawn Road, Marysville, Ohio 43041) comprising spaghnum peat moss, vermiculite, wetting agent and starter nutrients and treated with postemergence applications of test chemicals formulated in a non-phytotoxic solvent mixture which included a surfactant and applied using a volume of 299 L/ha. Each treatment was replicated four times. Treated plants and controls were maintained in a greenhouse using supplemental lighting to maintain a photoperiod of about 16 h; daytime and nighttime temperatures were about 24-30° C. and 19-21° C., respectively. Nutrients were applied using a balanced fertilizer applied through the watering system. At 14 days after treatment, all species were compared to controls and visually evaluated. Plant response ratings were calculated as the mean of the four replicates, are summarized in Tables H1 through H6, and are based on a scale of 0 to 100 where 0 is no effect and 100 is complete control. A dash (-) response means no test result.
(§2) Colby's Equation was used to determine the herbicidal effects expected from the mixtures. Colby's Equation (Colby, S. R. “Calculating Synergistic and Antagonistic Responses of Herbicide Combinations,” Weeds, 15(1), pp 20-22 (1967)) calculates the expected additive effect of herbicidal mixtures and for two active ingredients is of the form: Pa+b=Pa+Pb−(PaPb/100) • where • Pa+b is the percentage effect of the mixture expected from additive contribution of the individual components: • Pa is the observed percentage effect of the first active ingredient at the same use rate as in the mixture, and • Pb is the observed percentage effect of the second active ingredient at the same use rate as in the mixture. In the following Tables, rates are shown in grams of active ingredient per hectare (g a.i./ha); “Obsd.” is the observed effect. “Exp.” is the expected effect calculated from Colby's Equation.

Experiment [2] has as its system soybean (GLXMA, Glycine max). The description is as above. To be noted: commercial herbicide alone, 14 days after treatment.
Text: as §1, §2

The subject of experiment [3] is Kochia (KCHSC, Kochia scoparia). The experiment is described as above. As to conditions: commercial herbicide alone, 14 days after treatment.
Text: as §1, §2

The subject of another experiment is corn (ZEAMD, Zea mays). The experiment is described as above. To be noted: commercial herbicide alone, 14 days after treatment.
Text: as §1, §2

Experiment [4] concerns waterhemp (common waterhemp, AMATA, Amaranthus rudis). The description is as above. To be noted: commercial herbicide alone, 14 days after treatment.
Text: as §1, §2

The next experiment deals with rice (Oryza sativa). Nature of the experiment: Test B flooded paddy test, plant response rating 0-100. To be noted: Flood, 250 g ai/ha; scale 0 to 100 (0 no effect, 100 complete control); 13 to 15 days. In a few lines: (§3)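 Visual injury ratings against untreated controls, taken 13 to 15 days after compound was added to paddy water standing 3 cm above the soil.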
Experiment [5] deals with barnyardgrass (Echinochloa crus-galli). The description is as above. To be noted: Flood, 250 g ai/ha; scale 0 to 100 (0 no effect, 100 complete control); 13 to 15 days. In a few lines: as §3
Experiment [6] relates to sedge, umbrella (small-flower umbrella sedge, Cyperus difformis). Described as above. To be noted: Flood, 250 g ai/ha; scale 0 to 100 (0 no effect, 100 complete control); 13 to 15 days. In a few lines: as §3
The test system of experiment [7] is ducksalad (Heteranthera limosa). The experiment is described as above. To be noted: Flood, 250 g ai/ha; scale 0 to 100 (0 no effect, 100 complete control); 13 to 15 days. In a few lines: as §3
Experiment [8] deals with pigweed (Amaranthus retroflexus). Nature of the experiment: Test A pre-/postemergence greenhouse herbicide test, visual injury rating 0-100. To be noted: 1000 g ai/ha. In a few lines: (§4)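 Each species was treated both before emergence, via soil spray onto a loam–sand blend, and after emergence at the one- to two-leaf stage. Plants stayed in the greenhouse around 10 days before visual injury assessment.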

Experiment [9] relates to barnyardgrass (Echinochloa crus-galli). Described as above. As to conditions: 1000 g ai/ha. In a few lines:
as §4

In a further experiment the test system is corn (Zea mays). Described as above. To be noted: 1000 g ai/ha. In a few lines: as §4
Experiment [10] concerns large (Lg) crabgrass (Digitaria sanguinalis). The description is as above. To be noted: 1000 g ai/ha. In a few lines:
as §4

The subject of experiment [11] is giant foxtail (Setaria faberii). The experiment is described as above. To be noted: 1000 g ai/ha. In a few lines:
as §4

The subject of experiment [12] is velvetleaf (Abutilon theophrasti). The description is as above. As to conditions: 1000 g ai/ha. In a few lines:
as §4

Experiment [13] deals with wheat (Triticum aestivum). The description is as above. As to conditions: 1000 g ai/ha. In a few lines:
as §4

The subject of experiment [14] is morningglory (Ipomoea spp.). Described as above. As to conditions: 1000 g ai/ha. In a few lines:
as §4

Values joined by “and” are separate entries in the source; they are usually repeats but may differ in a detail not shown here. Equal values may be shown once.

Take `CS(=O)(=O)c1ccc(C(=O)C2C(=O)CCCC2=O)c([N+](=O)[O-])c1` [Mesotrione, mesotrione]: in [1] (4 g a.i./ha), the “AMAPA Obsd. (observed effect)” value is 78 and 72. Further, the “GLXMA Obsd. (observed effect)” value in [2] (4 g a.i./ha) is 64 and 62. In addition, the “KCHSC Obsd. (observed effect)” value in experiment [3] (4 g a.i./ha) is 79 and 72. Also, the “ZEAMD Obsd. (observed effect)” value in the experiment with corn (ZEAMD, Zea mays) (4 g a.i./ha) is listed as 0. In [4] (4 g a.i./ha), the “AMATA Obsd. (observed effect)” value was 79 and 92.
With `COc1cc(OC)nc(NC(=O)NS(=O)(=O)c2ncccc2C(=O)N(C)C)n1` [Nicosulfuron, nicosulfuron], the “AMAPA Obsd. (observed effect)” value was found to be 3 in experiment [1] (0.25 g a.i./ha) and 100 in experiment [1] (1 g a.i./ha). Further, the entries for the “GLXMA Obsd. (observed effect)” value in experiment [2] (0.25 g a.i./ha) and in [2] (1 g a.i./ha) were 0 and 51, respectively. The “KCHSC Obsd. (observed effect)” value worked out at 43 in experiment [3] (0.25 g a.i./ha) and 89 in [3] (1 g a.i./ha). The “ZEAMD Obsd. (observed effect)” value in the experiment on corn (ZEAMD, Zea mays) (0.25 g a.i./ha) was 0; in the experiment with corn (ZEAMD, Zea mays) (1 g a.i./ha), 0. Besides, the figures for the “AMATA Obsd. (observed effect)” value in [4] (0.25 g a.i./ha) and in experiment [4] (1 g a.i./ha) were 63 and 78, respectively.
With `CCOC(=O)c1ccccc1S(=O)(=O)NC(=O)Nc1nc(Cl)cc(OC)n1` [Chlorimuron-ethyl, chlorimuron-ethyl], the results for the “AMAPA Obsd. (observed effect)” value in [1] (0.25 g a.i./ha) and in [1] (1 g a.i./ha) were 65 and 86, respectively. The “GLXMA Obsd. (observed effect)” value in experiment [2] (0.25 g a.i./ha) and in experiment [2] (1 g a.i./ha) was 0 each time. The “KCHSC Obsd. (observed effect)” value amounted to 88 in experiment [3] (0.25 g a.i./ha) and 97 in [3] (1 g a.i./ha). Also, the “ZEAMD Obsd. (observed effect)” value is listed as 0 with corn (ZEAMD, Zea mays) (0.25 g a.i./ha) and 33 in the experiment with corn (ZEAMD, Zea mays) (1 g a.i./ha). The “AMATA Obsd. (observed effect)” value was determined as 77 in experiment [4] (0.25 g a.i./ha) and 76 in experiment [4] (1 g a.i./ha).
In the case of `CCn1cc(C(=O)c2ccccc2)c(-c2cc(F)cc(C(F)(F)F)c2)n1` [Compound 48], the “Plant response rating, Rice” value in the experiment on rice (Oryza sativa) worked out at 0. The “Plant response rating, Barnyardgrass” value in [5] amounted to 0. Further, in [6], the “Plant response rating, Sedge, Umbrella” value amounted to 0. In addition, in experiment [7], the “Plant response rating, Ducksalad” value is on record as 0. The “Plant response rating (0 to 100 scale), Pigweed” value came to 90 in experiment [8] (Postemergence) and 100 in [8] (Preemergence). Besides, the “Plant response rating (0 to 100 scale), Barnyardgrass” value turned out to be 20 in [9] (Postemergence) and 0 in [9] (Preemergence). For the same compound, the “Plant response rating (0 to 100 scale), Corn” value in the experiment on corn (Zea mays) (Postemergence) and in the experiment with corn (Zea mays) (Preemergence) was 0 each time. The “Plant response rating (0 to 100 scale), Crabgrass, Large” value in experiment [10] (Postemergence) came to 20; in experiment [10] (Preemergence) it was 0. The “Plant response rating (0 to 100 scale), Foxtail, Giant” value was 20 in experiment [11] (Postemergence) and 0 in [11] (Preemergence). In addition, the “Plant response rating (0 to 100 scale), Velvetleaf” value is recorded as 90 in experiment [12] (Postemergence) and 80 in experiment [12] (Preemergence). The “Plant response rating (0 to 100 scale), Wheat” value in [13] (Postemergence) and in experiment [13] (Preemergence) was 0 in each case. For the same compound, the “Plant response rating (0 to 100 scale), Morningglory” value in experiment [14] (Postemergence) is recorded as 20; in [14] (Preemergence) it was 0.
